Experimental data published in US20260028353.
Read-outs that look alike come from different tables or passages of the source.

Columns and labels:
[1] = 2 steps

Question: For “(9S,15S,18S,Z)-2-ethyl-18-isopropyl-3-(2-((S)-1-methoxyethyl)pyridin-3-yl)-5,5,19-trimethyl-2,4,5,6,9,10,11,12,15,16,18,19,23,24-tetradecahydro-8H,14H-9,13-epimino-1,30-etheno-15,27-methano-25,29-(metheno)pyrrolo[3,4-z][1]oxa[7,10,13,18]tetraazacyclotriacontine-8,14,17,20-tetraone”, which ring closure, isolated yield (rcm bond, 14-membered ring, Grubbs II, DCM, 7.1 mM, 40.0 °C) is on record?
Answer: The ring closure, isolated yield was 16%.

Question: With “(9S,15S,18R,22S)-2-ethyl-18-isopropyl-3-(2-((S)-1-methoxyethyl)-5-(4-methylpiperazin-1-y)pyridin-3-yl)-5,5-dimethyl-22-phenyl-2,4,5,6,9,10,11,12,15,16,18,19,22,23-tetradecahydro-8H,21H-9,13-epimino-1,29-etheno-15,26-methano-24,28-(metheno)pyrrolo[3,4-l][1,17]dioxa[4,23,26]triazacyclononacosine-8,14,17-trione” as the compound, how does the ring closure, isolated yield (amide bond, 13-membered ring, 2 steps) read?
Answer: Its ring closure, isolated yield is 6.4%.

Question: With COC(=O)[C@@H]1CCCN(C(=O)[C@@H]2Cc3cc(Br)cc(c3)CN(c3ccccc3)CCO[C@@H](C(C)C)C(=O)N2)N1 as the compound, how does the ring closure, isolated yield (from COC(=O)[C@@H]1CCCN(C(=O)[C@@H](N)Cc2cc(Br)cc(CN(CCO[C@H](C(=O)O)C(C)C)c3ccccc3)c2)N1, amide bond, 13-membered ring, EDCI/HOBt/DIEA, DCM, 107.0 mM, 25.0 °C, 2 steps) read?
Answer: The ring closure, isolated yield was 34%.

Question: With COC(=O)[C@@H]1Cc2cc(cc(Cl)n2)C=CCOC[C@@H](C(C)C)C(=O)N1 as the compound, how does the ring closure, isolated yield (from C=CCOC[C@H](C(=O)N[C@@H](Cc1cc(C=C)cc(Br)n1)C(=O)OC)C(C)C, rcm bond, 13-membered ring, Grubbs II (0.1 eq), DCM, 2.28 mM, 40.0 °C) read?
Answer: Its ring closure, isolated yield is 81%.

Question: With “(9S,15S,18S,20aS,21aR)-2-ethyl-18-isopropyl-3-(2-((S)-1-methoxyethyl)pyridin-3-yl)-5,5,19-trimethyl-2,4,5,6,9,10,11,12,15,16,18,19,21,21a,22,23-hexadecahydro-8H-9,13-epimino-1,29-etheno-15,26-methano-24,28-(metheno)cyclopropa[o]pyrrolo[3,4-z][1]oxa[7,10,13,18]tetraazacyclotriacontine-8,14,17,20(20aH)-tetraone” as the compound, how does the ring closure, yield after HPLC ([1]; amide bond, 14-membered ring) read?
Answer: The ring closure, yield after HPLC was 1.5%.

Question: With “tert-butyl ((9S,15S,18S,22R)-2-ethyl-18-isopropyl-3-(2-((S)-1-methoxyethyl)pyridin-3-yl)-5,5,19-trimethyl-8,14,17,20-tetraoxo-2,4,5,6,9,10,11,12,15,16,17,18,19,20,21,22,23,24-octadecahydro-8H,14H-9,13-epimino-1,31-etheno-15,28-methano-26,30-(metheno)pyrrolo[3,4-a1][1,19]dioxa[7,10,13]triazacyclohentriacontin-22-yl)carbamate” as the compound, how does the ring closure, isolated yield (amide bond, 15-membered ring, 3 steps) read?
Answer: The ring closure, isolated yield was 27%.

Question: For “(9S,15S,18S)-25-benzyl-2-ethyl-18-isopropyl-3-(2-((S)-1-methoxyethyl)pyridin-3-yl)-5,5,19-trimethyl-2,4,5,6,9,10,11,12,15,16,18,19,22,23,24,25-hexadecahydro-8H-9,13-epimino-1,31-etheno-15,28-methano-26,30-(metheno)pyrrolo[3,4-a1][1]oxa[7,10,13,19]tetraazacyclohentriacontine-8,14,17,20(21H)-tetraone”, which ring closure, isolated yield (amide bond, 15-membered ring, 2 steps) is on record?
Answer: The ring closure, isolated yield was 95%.

Question: For “tert-butyl 4-((9S,15S,18S,21 S)-3-(5-(4-cyclopropylpiperazin-1-yl)-2-((S)-1-methoxyethyl)pyridin-3-yl)-2-ethyl-18-isopropyl-5,5-dimethyl-8,14,17-trioxo-2,4,5,6,9,10,11,12,15,16,17,18,21,22-tetradecahydro-8H,14H,20H-9,13-epimino-1,29-etheno-15,26-methano-24,28-(metheno)pyrrolo[3,4-q][1,13,26]trioxa[4,7]diazacyclononacosin-21-yl)piperazine-1-carboxylate”, which ring closure, isolated yield (ether bond, 13-membered ring) is on record?
Answer: Its ring closure, isolated yield is 40%.

Question: Which ring closure, isolated yield (from COC(=O)[C@@H]1CCCN(C(=O)[C@@H](N)[C@@H](c2nc(Br)cs2)N(C)Cc2ccccc2OC[C@H]2CCCN2[C@H](C(=O)O)C(C)C)N1, amide bond, 13-membered ring, HATU/DIEA, DMF, 12.4 mM, 20.0 °C, 2 steps) does the source give for COC(=O)[C@@H]1CCCN(C(=O)[C@H]2NC(=O)[C@H](C(C)C)N3CCC[C@@H]3COc3ccccc3CN(C)[C@@H]2c2nc(Br)cs2)N1 here?
Answer: Its ring closure, isolated yield is 55%.

Question: For “(9S,15S,18S)-3-(5-(4-cyclopropylpiperazin-1-yl)-2-((S)-1-methoxyethyl)pyridin-3-yl)-2-ethyl-18-isopropyl-5,5-dimethyl-22-phenyl-2,4,5,6,9,10,11,12,15,16,20,21,22,23-tetradecahydro-8H,14H-9,13-epimino-1,29-etheno-15,26-methano-24,28-(metheno)pyrrolo[3,4-q][1,13]dioxa[4,7,27]triazacyclononacosine-8,14,17(18H)-trione”, which ring closure, yield after HPLC ([1]; ester bond, 18-membered ring) is on record?
Answer: The ring closure, yield after HPLC was 23%.

Question: With “(9S,15S,18R)-3-(5-(4-cyclopropylpiperazin-1-yl)-2-((S)-1-methoxyethyl)pyridin-3-yl)-2-ethyl-18-isopropyl-5,5-dimethyl-21-phenyl-2,4,5,6,9,10,11,12,15,16,19,22-dodecahydro-8H,14H-9,13-epimino-1,29-etheno-15,26-methano-24,28-(metheno)pyrrolo[3,4-u][1,17]dioxa[4,8,11]triazacyclononacosine-8,14,17(18H)-trione” as the compound, how does the ring closure, isolated yield (other bond, 13-membered ring, 2 steps) read?
Answer: Its ring closure, isolated yield is 62%.

Question: Which ring closure, isolated yield (amide bond, 13-membered ring, EDCI/HOBt/DIEA, DCM, 2 steps) does the source give for “(9S,15S,18R,21R)-3-(5-(4-cyclopropylpiperazin-1-yl)-2-((S)-1-methoxyethyl)pyridin-3-yl)-21-(2,6-dichloropyridin-4-yl)-2-ethyl-18-isopropyl-5,5-dimethyl-2,4,5,6,9,10,11,12,15,16,18,19,22,23-tetradecahydro-8H,21H-9,13-epimino-1,29-etheno-15,26-methano-24,28-(metheno)pyrrolo[3,4-l][1,17]dioxa[4,23,26]triazacyclononacosine-8,14,17-trione” here?
Answer: The ring closure, isolated yield was 66%.

Question: With “(9S,15S,18S,20aS,21aS,E)-2-ethyl-18-isopropyl-3-(2-((S)-1-methoxyethyl)pyridin-3-yl)-5,5,19-trimethyl-2,4,5,6,9,10,11,12,15,16,18,19,21,21a-tetradecahydro-8H-9,13-epimino-1,29-etheno-15,26-methano-24,28-(metheno)cyclopropa[o]pyrrolo[3,4-z][1]oxa[7,10,13]triazacyclotriacontine-8,14,17,20(20aH)-tetraone” as the compound, how does the ring closure, isolated yield (rcm bond, 14-membered ring, Grubbs II (0.5 eq), DCM, 12.0 mM, 40.0 °C) read?
Answer: Its ring closure, isolated yield is 11%.

Question: Which ring closure, isolated yield (from CCOC(=O)[C@@H](N)Cc1nc(Br)sc1CCCC(=O)N(C)[C@H](C(=O)O)C(C)C, amide bond, 12-membered ring, HATU/DIEA, DMF, 209.0 mM, 0.0 °C, 3 steps) does the source give for CCOC(=O)[C@@H]1Cc2nc(Br)sc2CCCC(=O)N(C)[C@@H](C(C)C)C(=O)N1 here?
Answer: Its ring closure, isolated yield is 28%.
